Reference: patent US20250020651A1, “PERSONALIZED MODULATION THERAPY FOR CANCER” (Faeth Therapeutics, Inc., priority 2021, published 2025)

Assays:
[1] = system: Pancreatic cancer cells such as BxPC3, CFPAC1, PANC1, DANG, and PATU8902; test: Crystal Violet cell growth with chemotherapy drugs in complete or P/S/G free media; format: cell-based, Human; conditions: P/S/G free media vs complete media, +10% dialyzed FBS, 3 days, Crystal Violet staining
Experimental: A study was performed to evaluate the efficacy of a disclosed composition in the treatment of cancer when combined with a chemotherapy drug. Pancreatic cancer cells such as BxPC3, CFPAC1, PANC1, DANG, and PATU8902 were treated with either Gemcitabine (GEM), Paclitaxel (PAC), GEM+PAC, and FOLFIRINOX (which is a combination of 5FU, Oxaliplatin, Folinic acid, and Irinotecan), in combination with complete media, or with media free of the amino acids […]), as indicated in FIG. 4 rows A-D. Cells were seeded in 96-well plates and in complete media+10% FBS. 24 hours later, cells were washed with PBS followed by addition of the indicated drugs with either complete or P/S/G free media+10% dialyzed FBS. Cells were grown for 3 more days, and cell growth was measured using Crystal Violet staining. […] Error bars denote the standard deviation.

[2] = system: Pancreatic cancer cell lines such as BxPC3, CFPAC1, PANC1, DANG and PATU8902; test: Crystal Violet cell growth with serabelisib in complete or P/S/G free media; format: cell-based, Human; conditions: P/S/G free media vs complete media, 3 days, Crystal Violet staining
Experimental: A study was performed to evaluate the efficacy of disclosed compositions in the treatment of cancer when combined with a targeted anti-cancer therapy. Pancreatic cancer cell lines such as BxPC3, CFPAC1, PANC1, DANG and PATU8902 were treated with an alpha specific PI3K inhibitor, serabelisib. Cells were seeded in 96-well plates and in complete media+10% FBS. 24 hours later, cells were washed with PBS followed by addition of serabelisib with either complete or P/S/G free media+10% dialysed FBS (FIG. 6A-6F). Cells were grown for 3 more days and cell growth was measured using Crystal Violet staining. Error bars denote standard deviation. […] P/S/G starvation pushes the response curve down and to the left meaning lower concentrations of drug achieve the same cell kill.

SMILES | effect of restriction of proline, serine, and glycine on cell growth response to the drug [1] | cell kill by serabelisib under P/S/G starvation [2]
Nc1ccn([C@@H]2O[C@H](CO)[C@@H](O)C2(F)F)c(=O)n1 [gemcitabine, Gemcitabine] | sensitized cancer cells | –
Nc1nc2cc(-c3ccc4ncc(C(=O)N5CCOCC5)n4c3)ccc2o1 [serabelisib] | – | improved cell kill at lower drug concentrations
CC(=O)O[C@H]1C(=O)[C@@]2(C)[C@H]([C@H](OC(=O)c3ccccc3)[C@]3(O)C[C@H](OC(=O)[C@H](O)[C@@H](NC(=O)c4ccccc4)c4ccccc4)C(C)=C1C3(C)C)[C@]1(OC(C)=O)CO[C@@H]1C[C@@H]2O [paclitaxel, Paclitaxel] | sensitized cancer cells | –
